Test results from patent publication US7811760B2, “Vector and method for detecting the change in transcription amount” (priority 2006, dated 2010).

Biological target: T1, C57/BL6-line mouse AhR (Mus musculus, UniProt P30561)
T1 construct: The AhR gene-coding region of the C57/BL6-line mouse was amplified from the reverse-transcribed sample by means of PCR; expressed in transfected cells; host or cells: mouse neuroblastoma Neuro2a, transient transfection with LIPOFECTAMINE 2000
T1 sequence (P30561 10-805 M324I/F348L/P471L/N533S/M589L/T758A limits assumed): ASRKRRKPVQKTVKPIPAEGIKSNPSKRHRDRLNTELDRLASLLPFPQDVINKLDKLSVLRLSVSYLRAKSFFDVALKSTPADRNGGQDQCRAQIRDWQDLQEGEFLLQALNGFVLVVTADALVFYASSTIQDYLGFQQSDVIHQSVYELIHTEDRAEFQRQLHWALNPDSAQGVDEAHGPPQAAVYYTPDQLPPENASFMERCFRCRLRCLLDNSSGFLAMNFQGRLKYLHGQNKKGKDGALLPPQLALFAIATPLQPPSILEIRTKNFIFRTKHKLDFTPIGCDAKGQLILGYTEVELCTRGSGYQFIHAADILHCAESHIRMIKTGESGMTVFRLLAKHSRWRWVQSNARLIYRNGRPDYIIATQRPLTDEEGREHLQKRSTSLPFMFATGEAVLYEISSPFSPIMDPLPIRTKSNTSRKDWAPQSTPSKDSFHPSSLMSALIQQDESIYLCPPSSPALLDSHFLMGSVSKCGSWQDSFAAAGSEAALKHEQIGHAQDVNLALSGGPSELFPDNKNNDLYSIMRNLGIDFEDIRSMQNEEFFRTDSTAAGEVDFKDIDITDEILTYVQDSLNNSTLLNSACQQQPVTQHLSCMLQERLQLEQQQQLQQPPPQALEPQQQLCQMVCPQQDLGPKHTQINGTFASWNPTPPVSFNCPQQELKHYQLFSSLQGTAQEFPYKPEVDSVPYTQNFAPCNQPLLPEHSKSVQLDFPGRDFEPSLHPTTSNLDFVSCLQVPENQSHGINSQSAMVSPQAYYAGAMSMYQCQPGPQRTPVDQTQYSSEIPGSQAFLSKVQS
Assay: Reporter gene assay in Neuro2a with pTHE100×3/Luc and PGV-mAhR
Type: cell-based
Conditions: 1 to 10,000 pM TCDD
Excerpt: In Example 8, the vector pTHE100×3/Luc (Example 7, FIG. 7A) was used as the vector containing a reporter gene, and Neuro2a was used as the cell.
In this Example, a combination of pcDNA4-rAhR (Example 1) containing the SD-line rat AhR gene and pcDNA4/V5-His/lacZ (Invitrogen), as well as a combination of PGV-mAhR (Example 1) containing the C57/BL6-line mouse AhR gene and pcDNA4/V5-His/lacZ were used as the vectors for introducing into the cell together with pTHE100×3/Luc. pcDNA4-rAhR was introduced into the cell for constitutive expression of the SD-line rat AhR (SEQ ID No: 10); PGV-mAhR was introduced into the cell for constitutive expression of C57/BL6-line mouse AhR (SEQ ID No: 11); and pcDNA4/V5-His/lacZ was introduced into the cell for normalization of the transfection efficiency of the vector.
The vectors were introduced into the cell by using LIPOFECTAMINE 2000, similarly to the method described in Example 3. After the above vectors were introduced into the cell, the obtained cell was exposed to 1 to 10,000 pM of TCDD to examine the increase in expression amount of the reporter gene in response to TCDD.

Clc1cc2c(cc1Cl)Oc1cc(Cl)c(Cl)cc1O2 [TCDD, 2,3,7,8-tetrachlorodibenzo-p-dioxine]
induction of transcription of the reporter gene in response to TCDD: effective in inducing transcription of the reporter gene
